According to patent publication US6440996B1, “Monomeric and dimeric heterocycles, and therapeutic uses thereof” (priority 1998, dated 2002):
Like-named read-outs stand apart in the source and are kept apart here.

Legend:
dopamine transporter [1] = target: T1, dopamine transporter (Rattus norvegicus, UniProt P23977); assay: [3H]WIN 35,428 binding to rat striatal membranes / dopamine transporter binding (DAT)
T1 construct: from tissue; P2 synaptosomes for uptake
Protocol: (§1) Determination of inhibitory binding potencies of analogues at dopamine, serotonin, and norepinephrine transporters are carried out using standard receptor binding assays which are known in the art.
A. Dopamine Transporter Binding (DAT)

Sprague-Dawley rats = assay: Locomotor activity (distance traveled, stereotypic behavior); assay type: in vivo
[2] = Drug discrimination, substitution for amphetamine; assay type: in vivo; conditions: for response rates across test doses: amphetamine discrimination
[3] = Drug discrimination, substitution for cocaine and co-administration with cocaine; assay type: in vivo
rats = assay: Intravenous drug self-administration; assay type: in vivo; conditions: for self-administration responding: i.v., FR10, cocaine 1 mg/kg/infusion, analog 2 0.3-3 mg/kg/infusion, analog 3 0.125-0.5 mg/kg infusion, vs saline extinction
Excerpt: J. Neurosci., 16, 7416-7427.
Rats were initially trained to lever press for food pellets in standard operant boxes. Following lever press training, rats were implanted with polyvinyl chloride catheters into femoral veins under halothane anesthesia (2-3% in medical grade oxygen) and were allowed to recover for an additional 7 days before initiation of i.v. drug self-administration testing. During drug self-administration sessions, food pellets were no longer delivered, and instead intravenous injections of drugs were delivered by way of the catheter.
Following this second extinction test, self-administration of piperidine analog 2 was studied at doses of 1, 3, and 0.3 mg/kg/infusion in that order. Each dose was tested for five days. During all the re-acquisition test days, a priming infusion was given at the start of the session on each day.

[4] = target: norepinephrine transporter (Rattus norvegicus, UniProt Q9WTR4); assay: Norepinephrine transporter binding (NET)
Protocol: as §1
C. Norepinephrine Transporter Binding (NET)
J. Med Chem., 36, 2886-2890.

serotonin transporter = serotonin transporter (Rattus norvegicus, UniProt P31652); assay: Serotonin transporter binding (5-HTT)
Protocol: as §1
B. Serotonin Transporter Binding (5-HTT)
Mol. Pharmacol., 39, 339.

[5] = target: striatal dopamine transporter (Macaca mulatta, UniProt Q7JHP9); assay: PET evaluation of 11C-labeled isomers
Protocol: The products were purified by HPLC on a C-18 cartridge eluted with MeOH: phosphate/triethylamine buffer, pH 7.2 (60:40).
After passage through a 0.22 μm filter, the sterile products were administered to three Rhesus monkeys and dynamic PET images were acquired over 90 minutes.

dopamine transporter [6] = target: T1, dopamine transporter; assay: Inhibition of high-affinity [3H]dopamine uptake into rat striatal nerve endings (synaptosomes); assay type: biochemical
Protocol: A. [^3H]Dopamine Uptake Studies
The effect of candidate compounds in antagonizing dopamine high-affinity uptake was determined using a method previously employed. For [^3H]DA uptake, dissected rat striata were homogenized with a Teflon-glass pestle in ice-cold 0.32 M sucrose and centrifuged for 10 min at 1000×g. The supernatant was centrifuged at 17,500×g for 20 min. This P2 synaptosomal pellet was resuspended in 30 volumes of ice-cold modified KRH buffer. An aliquot of the synaptosomal suspension was preincubated with the buffer and drug for 30 min at 37° C., and uptake initiated by the addition of [^3H]dopamine (5 nM, final concentration). After 5 min, uptake was terminated by adding 5 mL of cold buffer containing glucosamine as a substitute for NaCl and then finally by rapid vacuum filtration over GF-C glass fiber filters, followed by washing with two 5 mL volumes of ice-cold, sodium-free buffer. Radioactivity retained on the filters was determined by liquid scintillation spectrometry. […] It is identical to that calculated by subtracting the mean of identical tubes incubated at 0° C.

dopamine transporter [7] = conditions: cited from earlier work; for protection from the effect of 10 mM N-ethylmaleimide: 10 μM cocaine, 300 μM dopamine, d-amphetamine

Chain of serotonin transporter (P31652 whole entry): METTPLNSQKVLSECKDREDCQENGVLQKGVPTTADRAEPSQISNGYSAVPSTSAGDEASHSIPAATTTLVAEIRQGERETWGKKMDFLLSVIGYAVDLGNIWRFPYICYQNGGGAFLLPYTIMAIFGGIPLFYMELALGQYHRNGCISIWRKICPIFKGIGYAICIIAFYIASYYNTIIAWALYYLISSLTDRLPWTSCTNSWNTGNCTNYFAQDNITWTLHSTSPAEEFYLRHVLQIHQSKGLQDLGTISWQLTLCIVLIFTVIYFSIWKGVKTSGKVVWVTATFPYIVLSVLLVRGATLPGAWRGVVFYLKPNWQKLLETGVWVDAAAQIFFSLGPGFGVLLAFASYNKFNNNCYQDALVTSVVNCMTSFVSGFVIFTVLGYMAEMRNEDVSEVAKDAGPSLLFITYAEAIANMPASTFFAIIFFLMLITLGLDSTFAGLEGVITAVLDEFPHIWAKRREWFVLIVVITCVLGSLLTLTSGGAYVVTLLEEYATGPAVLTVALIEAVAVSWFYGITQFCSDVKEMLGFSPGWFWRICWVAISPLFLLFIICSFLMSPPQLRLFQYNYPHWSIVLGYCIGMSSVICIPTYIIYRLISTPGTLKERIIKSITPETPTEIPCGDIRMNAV
T1 sequence (P23977 whole entry): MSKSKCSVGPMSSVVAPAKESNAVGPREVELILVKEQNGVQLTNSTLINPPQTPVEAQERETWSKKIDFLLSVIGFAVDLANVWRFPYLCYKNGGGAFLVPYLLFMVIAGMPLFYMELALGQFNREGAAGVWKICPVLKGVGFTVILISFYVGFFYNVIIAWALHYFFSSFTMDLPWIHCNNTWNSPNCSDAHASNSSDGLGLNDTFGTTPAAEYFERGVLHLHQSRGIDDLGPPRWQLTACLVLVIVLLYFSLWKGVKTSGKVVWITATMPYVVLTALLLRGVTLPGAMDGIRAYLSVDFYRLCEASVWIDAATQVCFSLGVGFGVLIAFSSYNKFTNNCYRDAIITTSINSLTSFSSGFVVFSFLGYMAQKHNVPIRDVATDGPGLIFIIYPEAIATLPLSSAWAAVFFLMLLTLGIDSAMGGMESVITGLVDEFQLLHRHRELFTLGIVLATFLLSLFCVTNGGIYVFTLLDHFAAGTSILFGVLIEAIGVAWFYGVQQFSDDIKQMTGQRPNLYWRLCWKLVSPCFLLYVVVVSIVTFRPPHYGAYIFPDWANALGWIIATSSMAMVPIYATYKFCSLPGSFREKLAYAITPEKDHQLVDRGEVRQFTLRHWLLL
Chain of norepinephrine transporter (Q9WTR4 1-597): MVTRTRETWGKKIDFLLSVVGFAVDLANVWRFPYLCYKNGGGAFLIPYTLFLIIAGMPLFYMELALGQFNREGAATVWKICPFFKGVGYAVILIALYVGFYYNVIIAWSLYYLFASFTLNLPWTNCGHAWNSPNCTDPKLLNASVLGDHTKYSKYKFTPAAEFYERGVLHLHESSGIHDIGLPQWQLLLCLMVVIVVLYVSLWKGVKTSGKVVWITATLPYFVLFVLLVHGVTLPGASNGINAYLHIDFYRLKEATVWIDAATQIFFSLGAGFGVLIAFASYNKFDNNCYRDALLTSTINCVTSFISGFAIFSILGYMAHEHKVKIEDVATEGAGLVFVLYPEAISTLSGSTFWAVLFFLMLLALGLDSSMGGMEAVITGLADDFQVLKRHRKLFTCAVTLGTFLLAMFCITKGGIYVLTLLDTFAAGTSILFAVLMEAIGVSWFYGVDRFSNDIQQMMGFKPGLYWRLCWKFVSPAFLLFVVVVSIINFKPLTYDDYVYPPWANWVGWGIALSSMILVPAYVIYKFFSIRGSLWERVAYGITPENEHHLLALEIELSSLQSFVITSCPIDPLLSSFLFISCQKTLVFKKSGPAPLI
Chain of striatal dopamine transporter (Q7JHP9 1-620): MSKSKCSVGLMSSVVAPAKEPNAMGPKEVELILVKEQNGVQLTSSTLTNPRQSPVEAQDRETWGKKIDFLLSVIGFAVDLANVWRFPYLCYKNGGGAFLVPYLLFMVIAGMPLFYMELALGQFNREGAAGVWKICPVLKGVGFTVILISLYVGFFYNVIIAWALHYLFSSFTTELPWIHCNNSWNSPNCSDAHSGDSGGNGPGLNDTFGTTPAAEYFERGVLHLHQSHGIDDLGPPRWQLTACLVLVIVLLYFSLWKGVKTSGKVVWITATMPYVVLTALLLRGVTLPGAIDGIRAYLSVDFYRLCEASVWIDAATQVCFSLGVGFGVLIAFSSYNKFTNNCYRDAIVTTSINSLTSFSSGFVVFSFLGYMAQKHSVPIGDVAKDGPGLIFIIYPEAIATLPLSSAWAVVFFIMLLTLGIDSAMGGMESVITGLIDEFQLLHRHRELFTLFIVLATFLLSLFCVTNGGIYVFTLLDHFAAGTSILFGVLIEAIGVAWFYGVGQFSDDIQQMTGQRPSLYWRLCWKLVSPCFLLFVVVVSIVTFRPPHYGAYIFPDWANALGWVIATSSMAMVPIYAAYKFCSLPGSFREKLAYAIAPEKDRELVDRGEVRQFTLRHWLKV

Question: With `COC(=O)[C@@H]1CN(C)CC[C@H]1c1ccc(Cl)cc1` (racemic) [Compound 2, (±)-trans-Methyl 4-(4-Chlorophenyl)-1-methylpiperidine-3-carboxylate] as the compound, how does the IC50 (dopamine transporter [1]; DAT IC50 (nm), Table 2) read?
Answer: 196 nM

Question: And the IC50 (dopamine transporter [1]; IC50 (nM) [3H]WIN 35,428 binding, rat striatal membranes, Table 1)?
Answer: 197 ± 7.9 nM

Question: And the “time course of stereotypic response” value (Sprague-Dawley rats; 90 minutes following the drug injection)?
Answer: persistent at 90 minutes

Question: And the distance traveled (Sprague-Dawley rats; i.p., cocaine 10 mg/kg, analog 2 3-20 mg/kg, vs saline control)?
Answer: did not alter

Question: And the “stereotypic behavior / stereotypic time” value (Sprague-Dawley rats; i.p., cocaine 10 mg/kg, analog 2 10 and 20 mg/kg)?
Answer: small, statistically nonsignificant increase

Question: What about the “response rates across test doses” value [2] of the same compound?
Answer: remained fairly stable

Question: And the maximum amphetamine-lever responding ([2]; substitution tests)?
Answer: 53%

Question: And the “drug choice and response rate performance on co-administration with cocaine” value ([3]; analog 2 10 mg/kg plus cocaine 1.25 and 5 mg/kg, vs cocaine alone)?
Answer: did not significantly alter

Question: What about the “response rates compared with cocaine (10 mg/kg)” value ([3]; analog 2 5 and 10 mg/kg) of the same compound?
Answer: substantially lower

Question: And the maximum cocaine-lever responding ([3]; analog 2 5 and 20 mg/kg)?
Answer: 40%

Question: And the “number of infusions delivered vs saline extinction test” value (rats; analog 2, all doses tested)?
Answer: not significantly different

Question: What about the self-administration responding (rats) of the same compound?
Answer: failed to restore

Question: With `COC(=O)[C@@H]1CN(C)CC[C@@H]1c1ccc2ccccc2c1` (racemic) [Compound 74, (±)-Methyl 4β-(2-Naphthyl)-1-methylpiperidine-3β-carboxylate] as the compound, how does the IC50 (dopamine transporter [1]; DAT IC50 (nm), Table 2) read?
Answer: 13 nM

Question: And the IC50 [4]?
Answer: 2570 nM

Question: What about the IC50 (serotonin transporter; 5-HTT IC50 (nm), Table 2) of the same compound?
Answer: 107 nM

Question: What about the melting point of the same compound?
Answer: 100 to 101 °C

Question: For `COC(=O)C1CN(C)CCC1c1ccc(Br)cc1` (single isomer, unassigned; (+)) [Compound 69, (+)-Methyl 4β-(4-Bromophenyl)-1-methylpiperidine-3β-carboxylate], which IC50 (dopamine transporter [1]; DAT IC50 (nm), Table 2) is on record?
Answer: 406 nM

Question: What about the IC50 [4] of the same compound?
Answer: 21600 nM

Question: And the IC50 (serotonin transporter; 5-HTT IC50 (nm), Table 2)?
Answer: 4130 nM

Question: And the melting point?
Answer: 125 to 126 °C

Question: With `COC(=O)C1CN(CCCc2ccccc2)CCC1c1ccc(Cl)cc1` (single isomer, unassigned; (-)) [Compound 48, (−)-Methyl 4β-(4-Chlorophenyl)-1-(3-phenylpropyl)-piperidine-3β-carboxylate] as the compound, how does the IC50 (dopamine transporter [1]; DAT IC50 (nm), Table 2) read?
Answer: 157 nM

Question: What about the IC50 [4] of the same compound?
Answer: 1150 nM

Question: What about the IC50 (serotonin transporter) of the same compound?
Answer: 73200 nM

Question: And the melting point?
Answer: 73 to 75 °C

Question: For `COC(=O)C1CN(C)CCC1c1ccc(Cl)cc1` (single isomer, unassigned; isomer 4) [cis isomer, 4-(4-chlorophenyl)-3-carbomethoxy-N-methylpiperidine], which “brain accumulation of 11C-labeled tracer (PET)” value ([5]; dynamic PET over 90 minutes) is on record?
Answer: greater nonspecific accumulation in the cortex

Question: Which IC50 (dopamine transporter [1]; Table 2, read-out: DAT IC50 (nm)) does the source give for `COC(=O)[C@@H]1CN(C)CC[C@@H]1c1ccc(Cl)cc1` [Compound 3, (−)-Methyl 4β-(4-Chlorophenyl)-1-methylpiperidine-3β-carboxylate] here?
Answer: 25 nM

Question: And the IC50 (dopamine transporter [1]; rat striatal membranes, Table 1, read-out: IC50 (nM) [3H]WIN 35,428 binding)?
Answer: 24.8 ± 1.6 nM

Question: What about the IC50 (dopamine transporter [6]; Table 2, unit inferred, read-out: Dopamine Uptake) of the same compound?
Answer: 85 nM

Question: And the IC50 (dopamine transporter [6]; rat striatal synaptosomes, Table 1, read-out: IC50 (nM) [3H]dopamine uptake)?
Answer: 85.2 ± 2.6 nM

Question: What about the IC50 [4] of the same compound?
Answer: 1630 nM

Question: And the self-administration responding (rats)?
Answer: reliably self-administered

Question: With `CCN1C(=O)C=CC1=O` [N-Ethyhmaleimide] as the compound, how does the “inhibition of the specific binding of [3H]mazindol” value (dopamine transporter [7]; background) read?
Answer: about 95%

Question: Which “response rates across test doses” value [2] does the source give for `CC(N)Cc1ccccc1` (stereo not shown) [amphetamine, reference compound] here?
Answer: remained fairly stable

Question: What about the “substitution for the discriminative stimulus effects of amphetamine” value ([2]; substitution tests) of the same compound?
Answer: dose-dependent and complete substitution

Question: Which “protection from the effect of 10 mM N-ethylmaleimide” value (dopamine transporter [7]) does the source give for `C[C@H](N)Cc1ccccc1` [d-amphetamine] here?
Answer: neither 300 μM dopamine nor d-amphetamine afforded any significant protection

Question: Which “protection from the effect of 10 mM N-ethylmaleimide” value (dopamine transporter [7]) does the source give for `NCCc1ccc(O)c(O)c1` [dopamine] here?
Answer: neither 300 μM dopamine nor d-amphetamine afforded any significant protection

Question: For `COC(=O)C1CN(C)CCC1c1ccc(Cl)cc1` (stereo not drawn) [trans isomers, 4-(4-chlorophenyl)-3-carbomethoxy-N-methylpiperidine], which “striatal activity after unlabeled CFT” value ([5]; CFT given 60 minutes after injection) is on record?
Answer: selective decrease in the striatal activity
